Here are results for two compounds from US20060216774A1 (priority 2003, published 2006).

Data set [1] deals with O=C(O)CC(C(=O)O)C(O)C(=O)O. The data set is described as follows: purified protein, by the assay type. Conditions: other: Lineweaver-Burke plot and Cornish-Bowden direct linear plot.
The target in another data set is icl1 (isocitrate lyase) (Mycobacterium tuberculosis, UniProt P9WKK7). Conditions: read-out: Km for icl1; substrate isocitrate; cited from earlier work.
The target in a further data set is icl2 (isocitrate lyase) (Mycobacterium tuberculosis, UniProt Q8VJU4). Conditions: read-out: Km for icl2; substrate isocitrate; cited from earlier work.
The target in a further data set is isocitrate lyase (icl) (Escherichia coli, UniProt P0A9G6). Conditions: read-out: Km of icl; E. coli, substrate isocitrate; cited from earlier work.

A word on the Km: it is the concentration of substrate that gives half-maximal velocity.

Chain of icl1 (isocitrate lyase) (P9WKK7 whole entry): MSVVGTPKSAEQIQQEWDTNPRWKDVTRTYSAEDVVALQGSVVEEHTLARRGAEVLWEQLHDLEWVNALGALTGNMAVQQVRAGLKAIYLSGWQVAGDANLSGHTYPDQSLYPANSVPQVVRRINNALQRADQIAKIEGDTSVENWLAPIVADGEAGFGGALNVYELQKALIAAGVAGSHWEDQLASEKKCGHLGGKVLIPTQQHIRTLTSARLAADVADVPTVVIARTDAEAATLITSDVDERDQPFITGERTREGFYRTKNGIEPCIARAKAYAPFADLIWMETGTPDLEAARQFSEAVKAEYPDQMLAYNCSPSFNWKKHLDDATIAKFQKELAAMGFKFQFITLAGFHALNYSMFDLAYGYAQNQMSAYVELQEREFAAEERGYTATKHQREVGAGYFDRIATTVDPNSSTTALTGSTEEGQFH
Chain of icl2 (isocitrate lyase) (Q8VJU4 whole entry): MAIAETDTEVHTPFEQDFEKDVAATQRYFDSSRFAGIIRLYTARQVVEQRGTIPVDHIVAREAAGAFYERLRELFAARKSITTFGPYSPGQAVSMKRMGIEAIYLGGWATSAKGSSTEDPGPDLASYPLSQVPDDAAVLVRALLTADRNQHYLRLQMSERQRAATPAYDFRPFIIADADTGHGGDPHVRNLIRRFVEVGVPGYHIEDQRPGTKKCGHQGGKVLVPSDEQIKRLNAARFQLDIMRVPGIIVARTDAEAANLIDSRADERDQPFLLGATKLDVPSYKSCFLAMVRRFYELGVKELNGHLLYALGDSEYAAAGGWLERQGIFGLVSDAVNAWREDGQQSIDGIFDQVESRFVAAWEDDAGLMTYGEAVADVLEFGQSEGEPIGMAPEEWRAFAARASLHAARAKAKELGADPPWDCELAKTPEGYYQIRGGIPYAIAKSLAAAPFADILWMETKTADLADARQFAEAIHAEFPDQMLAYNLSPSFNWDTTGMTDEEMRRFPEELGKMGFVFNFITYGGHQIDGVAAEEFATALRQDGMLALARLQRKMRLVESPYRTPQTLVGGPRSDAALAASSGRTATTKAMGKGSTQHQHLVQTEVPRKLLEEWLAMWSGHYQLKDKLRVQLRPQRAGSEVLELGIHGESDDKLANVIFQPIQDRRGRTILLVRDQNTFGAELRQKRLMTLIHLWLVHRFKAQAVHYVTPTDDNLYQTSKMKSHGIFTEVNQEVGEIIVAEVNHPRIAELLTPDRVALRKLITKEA
Chain of isocitrate lyase (icl) (P0A9G6 whole entry): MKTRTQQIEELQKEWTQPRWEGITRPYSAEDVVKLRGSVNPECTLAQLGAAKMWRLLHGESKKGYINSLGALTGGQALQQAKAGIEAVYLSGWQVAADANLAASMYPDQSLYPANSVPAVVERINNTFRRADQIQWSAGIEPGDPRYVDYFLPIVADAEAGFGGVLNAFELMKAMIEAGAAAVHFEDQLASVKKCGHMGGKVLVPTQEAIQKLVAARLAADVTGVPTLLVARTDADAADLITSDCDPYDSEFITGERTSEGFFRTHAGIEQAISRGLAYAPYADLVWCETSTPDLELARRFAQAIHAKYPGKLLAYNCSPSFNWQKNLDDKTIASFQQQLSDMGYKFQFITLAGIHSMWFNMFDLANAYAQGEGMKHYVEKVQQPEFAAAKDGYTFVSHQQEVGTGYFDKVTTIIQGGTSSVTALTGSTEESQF

Regarding “icd1 (isocitrate dehydrogenase, Rv 3339c) (Mycobacterium tuberculosis H37Rv)”, the Km in data set [1] was 12 µM.

In the case of `O=C(O)CC(C(=O)O)C(O)C(=O)O` (stereo not shown) [isocitrate], the Km at icl1 (isocitrate lyase) is approximately 115 µM; at icl2 (isocitrate lyase), approximately 1500 µM; at isocitrate lyase (icl), 604 µM.
